≈ marks a conversion by molar mass, not a printed value. Calls of active or inactive are those of the source. The rule behind the calls is not given here.
Assays:
[1] = test system: Human immunodeficiency virus 1; experiment: Antiviral activity against HIV1 in human CEM-SS cells assessed inhibition of virus-induced cytopathic effects; format: functional, organism-based
[2] = test system: Human immunodeficiency virus 1; experiment: Antiviral activity against HIV1 in human CEM-SS cells assessed as cytoprotection against virus-induced cytopathogenicity; format: functional
[3] = Human immunodeficiency virus 1, CEM-SS

EC50 [1, 3] [µg/mL]	IC50 [1, 3] [µg/mL]	Structure (SMILES)	Activity [1]	Activity [2]
		CCOC(=O)NN(OC(=O)C[C@H](c1ccccc1)[C@@]12C(=O)[C@@](CC=C(C)C)(C[C@@H](CC=C(C)C)C1(C)C)C(=O)C(C(=O)CC(C)C)=C2O)C(=O)OCC	inactive	inactive
0.62 (≈ 1.1 µM)	6.6 (≈ 11.7 µM)	CC(C)=CC[C@@H]1C[C@@]2(CC=C(C)C)C(=O)C(C(=O)CC(C)C)=C(O)[C@]([C@H](CC(=O)O)c3ccccc3)(C2=O)C1(C)C [LAXIFLORANONE]		80%
